Results taken from the NIST ThermoML archive (doi:10.1016/j.fluid.2010.04.008).
Numbers after ± are expanded uncertainties.

Conditions: Liquid, Ebulliometric method (Recirculating still)

C1COCCN1 [tetrahydro-1,4-oxazine]
Conditions	vapor or sublimation pressure [kPa]
356.46 K	22.57 ± 0.2
359.12 K	24.96 ± 0.2
361.7 K	27.47 ± 0.2
364.05 K	30.02 ± 0.21
366.23 K	32.49 ± 0.21
368.27 K	34.95 ± 0.21
370.28 K	37.52 ± 0.21
372.11 K	40.01 ± 0.21
373.84 K	42.47 ± 0.21
375.53 K	45.01 ± 0.21
377.1 K	47.47 ± 0.21
378.63 K	49.95 ± 0.21
380.12 K	52.51 ± 0.21
381.51 K	54.94 ± 0.22
382.87 K	57.53 ± 0.22
384.16 K	59.98 ± 0.22
385.48 K	62.51 ± 0.22
386.71 K	65.04 ± 0.22
387.9 K	67.54 ± 0.22
389.05 K	69.99 ± 0.22
390.19 K	72.56 ± 0.22
391.28 K	75.03 ± 0.22
392.32 K	77.49 ± 0.23
393.36 K	80.02 ± 0.23
394.38 K	82.52 ± 0.23
395.33 K	85.07 ± 0.23
396.32 K	87.48 ± 0.23
397.26 K	90.03 ± 0.23
398.15 K	92.46 ± 0.23
399.11 K	95.07 ± 0.24
399.93 K	97.49 ± 0.24
400.78 K	100.01 ± 0.24
401.24 K	101.32 ± 0.24
